Where two headings read alike, the source gives them in different places.

For experiment [1], the target named is T1, glutathione-S-transferase (GST) tagged LXRbeta LBD (ligand binding domain) (Homo sapiens, UniProt P55055).
T1 construct: purchased Invitrogen pv4658.pps
T1 sequence (P55055 222-460 limits assumed): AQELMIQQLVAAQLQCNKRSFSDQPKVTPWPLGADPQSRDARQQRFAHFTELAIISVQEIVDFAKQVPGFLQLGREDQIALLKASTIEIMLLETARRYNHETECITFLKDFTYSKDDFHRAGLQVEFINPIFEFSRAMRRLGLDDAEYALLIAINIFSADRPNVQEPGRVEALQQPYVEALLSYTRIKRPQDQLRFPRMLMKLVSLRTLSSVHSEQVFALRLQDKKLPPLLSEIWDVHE
Description: LanthaScreen TR-FRET Liver X Receptor Coactivator Assay, co-activator recruitment to LXRbeta LBD. The experiment is classed as biochemical. To be noted: for Emax: read-out: LXR beta Activity @ max dose (%); for EC50: potency (Inflection Point, IP), co-activator recruitment to LXRbeta LBD, in relation to T0901317. Here is the method:
(§1) Potency (Inflection Point, IP) and efficacy (Emax) are evaluated via compound-induced co-activator recruitment to glutathione-S-transferase (GST) tagged LXRbeta and LXRalpha LBD (ligand binding domain) proteins in relation to reference dual agonist compound T0901317 (N-(2,2,2-Trifluoroethyl)-N-[4-[2,2,2-trifluoro-1-hydroxy-1-(trifluoromethyl)ethyl] phenyl] benzenesulfonamide) using the LanthaScreen™ TR-FRET Liver X Receptor Coactivator Assays according to manufacturer's instructions (Invitrogen catalog number pv4658.pps and pv4655). While running the LanthaScreen™ TR-FRET Liver X Receptor Coactivator Assay, LXR alpha-LBD or LXR beta-LBD was added to ligand test compounds followed by addition of a mixture of a fluorescein-labelled coactivator peptide and terbium-conjugated anti-GST antibody. After an incubation period at room temperature, TR-FRET (time-resolved fluorescence resonance energy transfer) was measured using a filter-based instrument capable of TR-FRET, e.g. PerkinElmer Envision.

The target in experiment [2] is T2, glutathione-S-transferase (GST) tagged LXRalpha LBD (ligand binding domain) (Homo sapiens, UniProt Q13133).
T2 construct: purchased Invitrogen pv4655
T2 sequence (Q13133 209-447 limits assumed): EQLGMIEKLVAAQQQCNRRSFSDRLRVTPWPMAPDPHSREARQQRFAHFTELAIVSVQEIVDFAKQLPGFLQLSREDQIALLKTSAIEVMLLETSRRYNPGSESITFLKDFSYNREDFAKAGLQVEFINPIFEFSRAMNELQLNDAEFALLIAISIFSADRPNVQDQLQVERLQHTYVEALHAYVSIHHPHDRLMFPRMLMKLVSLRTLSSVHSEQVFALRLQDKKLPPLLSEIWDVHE
Put plainly: LanthaScreen TR-FRET Liver X Receptor Coactivator Assay, co-activator recruitment to LXRalpha LBD. The class given is biochemical. Conditions: for Emax: efficacy at max dose, in relation to reference dual agonist T0901317, read-out: LXR alpha Activity @ max dose (%); for LXR alpha IP (nM) / EC50: potency (Inflection Point, IP), co-activator recruitment to LXRalpha LBD, in relation to T0901317; for EC50: read-out: LXR alpha IP. The method, then: as §1
(In general: Time-resolved FRET reads energy transfer from a long-lived donor to a nearby acceptor.)

The mark [3] stands for this setting: efficacy at max dose, in relation to reference dual agonist T0901317.

Regarding `CN(C)C(=O)c1ccc(N2CCC(CC3CCN(C(=O)C4(c5ccccc5)CC4)CC3)CC2)cc1Cl` [Example 2-9, 2-chloro-N,N-dimethyl-4-[4-({1-[(1-phenyl-cyclopropyl)carbonyl]piperidin-4-yl}methyl)piperidin-1-yl] benzamide], the Emax came to 48% in experiment [1] (setting [3]) and 0% in experiment [2]. The EC50 in experiment [1] (read-out: LXR beta IP) was found to be 97 nM. In experiment [2], the “LXR alpha IP (nM)” value is given as “NO IP”.
For `COc1cccc([C@@](O)(C(=O)N2CCC(C)(CC3CCN(c4ccc(C(=O)N(C)C)c(Cl)n4)CC3)CC2)C(F)(F)F)c1` [Example 7-51, 2-chloro-N,N-dimethyl-6-[4-({4-methyl-1[(2R)-3,3,3-trifluoro-2-hydroxy-2-(3-methoxyphenyl)propanoyl]piperidin-4-yl}methyl)piperidin-1-yl]pyridine-3-carboxamide] the same measures were 35%, 4%, 5 nM and “NO IP”.
For the compound `CN(C)C(=O)c1ccc(N2CCC(CC3CCN(C(=O)[C@](O)(c4ccccc4)C(F)(F)F)CC3)CC2)nc1Cl` [Example 7-63, 2-chloro-N,N-dimethyl-6-[4-({1-[(2R)-3,3,3-trifluoro-2-hydroxy-2-phenylpropanoyl]piperidin-4-yl}methyl)piperidin-1-yl]pyridine-3-carboxamide], the values for the Emax in experiment [1] (setting [3]) and in experiment [2] were 102% and 39%, respectively. For the same compound, the EC50 in experiment [1] (read-out: LXR beta IP) came out at 6 nM; in experiment [2], 158 nM.
As for `CN(C)C(=O)c1ccc(N2CCC(CC3CCN(C(=O)C(N)(c4ccccc4)C(F)(F)F)CC3)CC2)nc1Cl` (centres unmarked) [Example 7-103, 6-(4-{[1-(2-amino-3,3,3-trifluoro-2-phenylpropanoyl)piperidin-4-yl]methyl}piperidin-1-yl)-2-chloro-N,N-dimethylpyridine-3-carboxamide], the Emax in experiment [1] (setting [3]) came to 122%; in experiment [2], 47%. In addition, the EC50 in experiment [1] (read-out: LXR beta IP) came out at 31 nM; in experiment [2] it was 1680 nM.
Regarding `CN(C)C(=O)c1ccc(N2CCCN(CC3CCN(C(=O)C(O)(c4cccc(Cl)c4)C(F)(F)F)CC3)CC2)cc1Cl` (centres unmarked) [Example 6-2, 2-chloro-4-[4-({1-[2-(3-chlorophenyl)-3,3,3-trifluoro-2-hydroxypropanoyl]piperidin-4-yl}methyl)-1,4-diazepan-1-yl]-N,N-dimethylbenzamide], the values for the Emax in experiment [1] (setting [3]) and in experiment [2] were 98% and 14%, respectively. The EC50 in experiment [1] (read-out: LXR beta IP) was 533 nM. The “LXR alpha IP (nM)” value in experiment [2] is “NO IP”.
Regarding `CCc1cccc([C@@](O)(C(=O)N2CC(CC3CCN(c4ccc(C(=O)N(C)C)c(Cl)c4)CC3)C2)C(F)(F)F)c1` [Example 2-64, 2-chloro-4-[4-({1-[(2R)-2-(3-ethyl-phenyl)-3,3,3-trifluoro-2-hydroxy-propanoyl]azetidin-3-yl}methyl)piperidin-1-yl]-N,N-dimethyl-benzamide], the results for the Emax in experiment [1] (setting [3]) and in experiment [2] were 75% and 18%, respectively. Further, the results for the EC50 in experiment [1] (read-out: LXR beta IP) and in experiment [2] were 30 nM and 1070 nM, respectively.
On to `CCOc1cccc([C@@](O)(C(=O)N2CC(CC3CCN(c4ccc(C(=O)N(C)C)c(Cl)n4)CC3)C2)C(F)(F)F)c1` [Example 7-44, 2-chloro-6-[4-({1-[(2R)-2-(3-ethoxyphenyl)-3,3,3-trifluoro-2-hydroxypropanoyl]azetidin-3-yl}methyl)piperidin-1-yl]-N,N-dimethylpyridine-3-carboxamide], for which the Emax in experiment [1] (setting [3]) worked out at 75%; in experiment [2], 8%. Further, the EC50 in experiment [1] (read-out: LXR beta IP) worked out at 34 nM. In addition, in experiment [2], the “LXR alpha IP (nM)” value is “NO IP”.
As for `CNC(=O)c1ccc(N2CCC(CC3CCN(C(=O)[C@](O)(c4cccc(C(C)C)c4)C(F)(F)F)CC3)CC2)cc1Cl` [Example 7-123, 2-chloro-N-methyl-4-{4-[(1-{(2R)-3,3,3-trifluoro-2-hydroxy-2-[3-(1-methylethyl)phenyl]propanoyl}piperidin-4-yl)methyl]piperidin-1-yl}benzamide], the Emax in experiment [1] (setting [3]) was determined as 73%; in experiment [2], 21%. Also, the EC50 was found to be 17 nM in experiment [1] (read-out: LXR beta IP) and 307 nM in experiment [2].
As to `COc1cccc([C@@](O)(C(=O)N2CC(CC3CCN(c4ccc(C(=O)N(C)C)c(Cl)n4)CC3)C2)C(F)(F)F)c1` [Example 7-45, 2-chloro-N,N-dimethyl-6-[4-({1-[(2R)-3,3,3-trifluoro-2-hydroxy-2-(3-methoxyphenyl)propanoyl]azetidin-3-yl}methyl)piperidin-1-yl]pyridine-3-carboxamide], the Emax in experiment [1] (setting [3]) is 92%. Also, in experiment [1] (read-out: LXR beta IP), the EC50 was found to be 22 nM. Besides, in experiment [2], the Emax turned out to be 14% and the “LXR alpha IP (nM)” value is reported as “NO IP”.
For the compound `CN(C)C(=O)c1ccc(N2CCC(CC3CCN(C(=O)[C@](O)(c4cccc(Cl)c4)C(F)(F)F)CC3)CC2)nc1Cl` [Example 7-69, 2-chloro-6-[4-({1-[(2R)-2-(3-chlorophenyl)-3,3,3-trifluoro-2-hydroxypropanoyl]piperidin-4-yl}methyl)piperidin-1-yl]-N,N-dimethylpyridine-3-carboxamide], the Emax in experiment [1] (setting [3]) turned out to be 82%; in experiment [2], 30%. Besides, the EC50 in experiment [1] (read-out: LXR beta IP) was found to be 3 nM; in experiment [2], 70 nM.
As for `COc1cccc([C@@](O)(C(=O)N2CCC(C)(CC3CCN(c4ccc(C(=O)N(C)C)c(Cl)c4)CC3)CC2)C(F)(F)F)c1` [Example 2-45, 2-chloro-N,N-dimethyl-4-[4-({4-methyl-1-[(2R)-3,3,3-trifluoro-2-hydroxy-2-(3-methoxyphenyl)propanoyl]piperidin-4-yl}methyl)piperidin-1-yl]benzamide], the Emax in experiment [1] (setting [3]) was 18%. Also, the EC50 in experiment [1] (read-out: LXR beta IP) was 7 nM. Further, in experiment [2], the Emax was found to be 0% and the “LXR alpha IP (nM)” value is listed as “NO IP”.
For the compound `CCOc1cccc([C@@](O)(C(=O)N2CCC(CC3CN(c4ccc(C(=O)N(C)C)c(C5CC5)n4)C3)CC2)C(F)(F)F)c1` [Example 7-17, 2-cyclopropyl-6-[3-({1-[(2R)-2-(3-ethoxyphenyl)-3,3,3-trifluoro-2-hydroxypropanoyl]piperidin-4-yl}methyl)azetidin-1-yl]-N,N-dimethylpyridine-3-carboxamide], the Emax in experiment [1] (setting [3]) stood at 36%. Also, the EC50 in experiment [1] (read-out: LXR beta IP) amounted to 1290 nM. In addition, in experiment [2], the Emax is 0% and the “LXR alpha IP (nM)” value is “NO IP”.
As for `CNC(=O)c1ccc(N2CCC(SC3CCN(C(=O)[C@](O)(c4cccc(OC)c4)C(F)(F)F)CC3)CC2)nc1Cl` [Example 11-1, (R)-2-chloro-N-methyl-6-(4-(1-(3,3,3-trifluoro-2-hydroxy-2-(3-methoxyphenyl)propanoyl)piperidin-4-ylthio)piperidin-1-yl)nicotinamide], in experiment [1] (LXR beta IP (nM)), the EC50 turned out to be 17 nM. In addition, the Emax in experiment [1] is 93%. Moreover, in experiment [2], the Emax was 17% and the “LXR alpha IP (nM)” value is recorded as “NO IP”.
Turning to `Cc1cc(F)cc(C(O)(C(=O)N2CCC(CC3CCN(c4ccc(C(=O)N(C)C)c(Cl)c4)CC3)CC2)C(F)(F)F)c1` (centres unmarked) [Example 2-42, 2-chloro-N,N-dimethyl-4-[4-({1-[3,3,3-trifluoro-2-(3-fluoro-5-methylphenyl)-2-hydroxy-propanoyl]piperidin-4-yl}methyl)piperidin-1-yl]benzamide], the Emax was 76% in experiment [1] (setting [3]) and 25% in experiment [2]. The EC50 amounted to 12 nM in experiment [1] (read-out: LXR beta IP) and 162 nM in experiment [2].

These data come from patent US10752587B2, “Homobispiperidinyl derivatives as liver X receptor beta agonists, compositions and their use” (Merck Sharp & Dohme Corp., priority 2015, dated 2020).
